Assay results published in article PMC7026418, “The kinase polypharmacology landscape of clinical PARP inhibitors” (Scientific Reports, 2020).
Read-outs that look alike come from different tables or passages of the source.

Tests used:
Assay in all cases: biochemical
Design in all cases: DiscoveRx KINOMEscan active site-directed competition binding; percent of control kinase bound to immobilised ligand
[1] = target: T1, ABL1(H396P)-phosphorylated (Homo sapiens, UniProt P00519, H396P)
T1 construct: phosphorylated

[2] = target: T2, MINK (Homo sapiens, UniProt Q8N4C8)
T2 construct: gene MINK1
T2 sequence (Q8N4C8 whole entry): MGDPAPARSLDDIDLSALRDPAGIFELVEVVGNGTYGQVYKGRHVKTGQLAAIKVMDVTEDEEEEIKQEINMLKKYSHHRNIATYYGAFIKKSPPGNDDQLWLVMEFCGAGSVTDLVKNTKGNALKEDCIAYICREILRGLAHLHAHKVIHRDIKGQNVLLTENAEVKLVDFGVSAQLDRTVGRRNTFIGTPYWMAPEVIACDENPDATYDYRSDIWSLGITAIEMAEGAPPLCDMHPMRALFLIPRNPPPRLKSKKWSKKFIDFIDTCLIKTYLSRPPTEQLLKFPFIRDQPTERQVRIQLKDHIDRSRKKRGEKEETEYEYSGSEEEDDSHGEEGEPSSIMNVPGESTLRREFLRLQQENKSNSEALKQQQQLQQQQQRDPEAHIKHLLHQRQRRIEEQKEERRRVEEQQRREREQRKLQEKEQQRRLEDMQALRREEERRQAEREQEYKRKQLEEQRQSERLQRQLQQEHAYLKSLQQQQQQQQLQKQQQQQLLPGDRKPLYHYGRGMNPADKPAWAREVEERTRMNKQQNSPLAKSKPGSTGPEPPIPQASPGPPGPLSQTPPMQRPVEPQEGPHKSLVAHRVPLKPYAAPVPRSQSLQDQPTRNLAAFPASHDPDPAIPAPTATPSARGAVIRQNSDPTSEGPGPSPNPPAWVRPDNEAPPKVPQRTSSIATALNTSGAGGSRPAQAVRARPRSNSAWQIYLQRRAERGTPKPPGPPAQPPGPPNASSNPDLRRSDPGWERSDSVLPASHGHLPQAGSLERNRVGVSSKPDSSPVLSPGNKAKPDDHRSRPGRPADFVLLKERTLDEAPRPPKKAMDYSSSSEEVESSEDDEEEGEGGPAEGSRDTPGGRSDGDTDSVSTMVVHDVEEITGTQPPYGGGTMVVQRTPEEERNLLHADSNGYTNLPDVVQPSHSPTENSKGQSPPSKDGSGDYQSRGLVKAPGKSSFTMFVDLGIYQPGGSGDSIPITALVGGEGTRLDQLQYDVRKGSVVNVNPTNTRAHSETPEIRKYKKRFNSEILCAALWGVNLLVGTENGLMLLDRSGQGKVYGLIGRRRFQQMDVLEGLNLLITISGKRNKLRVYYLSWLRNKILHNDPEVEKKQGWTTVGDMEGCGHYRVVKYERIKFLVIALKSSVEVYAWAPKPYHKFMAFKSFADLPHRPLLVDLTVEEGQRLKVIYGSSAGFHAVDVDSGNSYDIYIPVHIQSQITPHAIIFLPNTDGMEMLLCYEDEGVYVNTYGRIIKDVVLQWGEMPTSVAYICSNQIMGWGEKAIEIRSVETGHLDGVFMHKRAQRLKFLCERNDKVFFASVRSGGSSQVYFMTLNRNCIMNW

[3] = target: T3, EPHA8 (Homo sapiens, UniProt P29322)
T3 sequence (P29322 1-1005): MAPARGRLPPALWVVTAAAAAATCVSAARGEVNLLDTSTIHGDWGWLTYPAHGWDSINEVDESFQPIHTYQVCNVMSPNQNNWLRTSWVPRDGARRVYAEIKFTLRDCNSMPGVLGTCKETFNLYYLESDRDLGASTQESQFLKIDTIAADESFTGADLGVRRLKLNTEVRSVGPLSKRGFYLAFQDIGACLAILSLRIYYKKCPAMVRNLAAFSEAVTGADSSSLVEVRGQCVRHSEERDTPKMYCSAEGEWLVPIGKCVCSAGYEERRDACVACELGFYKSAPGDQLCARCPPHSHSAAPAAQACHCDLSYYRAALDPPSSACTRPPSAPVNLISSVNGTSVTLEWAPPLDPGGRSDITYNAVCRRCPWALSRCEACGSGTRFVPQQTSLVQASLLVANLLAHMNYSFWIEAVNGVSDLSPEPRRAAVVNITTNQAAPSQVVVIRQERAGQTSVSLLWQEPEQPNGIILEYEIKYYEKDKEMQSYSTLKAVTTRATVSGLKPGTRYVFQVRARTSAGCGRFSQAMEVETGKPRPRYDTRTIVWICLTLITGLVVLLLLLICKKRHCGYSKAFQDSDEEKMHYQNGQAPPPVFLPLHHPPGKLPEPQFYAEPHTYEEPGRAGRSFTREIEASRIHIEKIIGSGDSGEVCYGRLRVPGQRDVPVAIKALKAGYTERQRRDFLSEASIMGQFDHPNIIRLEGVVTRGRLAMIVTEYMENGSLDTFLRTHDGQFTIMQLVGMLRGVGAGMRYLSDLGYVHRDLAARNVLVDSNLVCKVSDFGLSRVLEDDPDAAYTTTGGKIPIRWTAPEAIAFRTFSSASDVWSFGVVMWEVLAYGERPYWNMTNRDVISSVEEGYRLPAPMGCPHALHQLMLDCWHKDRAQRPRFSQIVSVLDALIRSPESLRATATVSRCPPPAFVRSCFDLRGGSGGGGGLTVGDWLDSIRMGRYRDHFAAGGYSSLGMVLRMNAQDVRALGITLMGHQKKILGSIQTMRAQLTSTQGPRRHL

[4] = target: CLK4 (Homo sapiens, UniProt Q9HAZ1)
Chain of CLK4 (Q9HAZ1 whole entry): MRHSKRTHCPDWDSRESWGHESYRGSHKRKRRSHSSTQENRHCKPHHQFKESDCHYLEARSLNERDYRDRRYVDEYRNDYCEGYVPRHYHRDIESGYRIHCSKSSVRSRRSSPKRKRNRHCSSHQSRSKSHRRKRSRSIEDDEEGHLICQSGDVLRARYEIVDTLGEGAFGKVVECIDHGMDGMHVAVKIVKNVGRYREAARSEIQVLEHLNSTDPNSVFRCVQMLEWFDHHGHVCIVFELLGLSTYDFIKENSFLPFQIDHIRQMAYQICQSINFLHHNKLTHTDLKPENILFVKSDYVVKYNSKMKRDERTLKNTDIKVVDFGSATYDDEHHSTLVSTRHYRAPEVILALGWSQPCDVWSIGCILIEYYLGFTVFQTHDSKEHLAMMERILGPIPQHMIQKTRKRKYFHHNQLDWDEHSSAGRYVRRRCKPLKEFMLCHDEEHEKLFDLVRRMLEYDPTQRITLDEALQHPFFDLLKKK

[5] = target: CAMKK2 (Homo sapiens, UniProt Q96RR4)
Chain of CAMKK2 (Q96RR4 whole entry): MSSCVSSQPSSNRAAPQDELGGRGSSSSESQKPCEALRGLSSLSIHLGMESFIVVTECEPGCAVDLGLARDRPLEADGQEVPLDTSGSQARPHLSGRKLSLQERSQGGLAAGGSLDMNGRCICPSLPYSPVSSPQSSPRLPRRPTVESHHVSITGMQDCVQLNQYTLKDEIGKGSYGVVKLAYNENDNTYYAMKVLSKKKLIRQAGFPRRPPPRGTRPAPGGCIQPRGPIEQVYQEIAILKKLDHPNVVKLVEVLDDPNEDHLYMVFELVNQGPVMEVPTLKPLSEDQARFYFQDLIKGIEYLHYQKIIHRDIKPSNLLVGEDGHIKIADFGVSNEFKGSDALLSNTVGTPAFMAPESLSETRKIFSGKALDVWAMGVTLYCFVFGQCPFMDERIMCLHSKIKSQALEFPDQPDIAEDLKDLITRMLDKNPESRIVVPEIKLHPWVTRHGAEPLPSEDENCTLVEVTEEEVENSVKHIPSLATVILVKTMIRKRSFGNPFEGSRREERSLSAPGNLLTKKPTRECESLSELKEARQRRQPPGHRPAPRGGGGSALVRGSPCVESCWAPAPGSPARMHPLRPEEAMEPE

[6] = target: T4, RSK1(Kin.Dom.1-N-terminal) (Homo sapiens, UniProt Q15418)
T4 construct: gene RPS6KA1; Kin.Dom.1-N-terminal
T4 sequence (Q15418 whole entry): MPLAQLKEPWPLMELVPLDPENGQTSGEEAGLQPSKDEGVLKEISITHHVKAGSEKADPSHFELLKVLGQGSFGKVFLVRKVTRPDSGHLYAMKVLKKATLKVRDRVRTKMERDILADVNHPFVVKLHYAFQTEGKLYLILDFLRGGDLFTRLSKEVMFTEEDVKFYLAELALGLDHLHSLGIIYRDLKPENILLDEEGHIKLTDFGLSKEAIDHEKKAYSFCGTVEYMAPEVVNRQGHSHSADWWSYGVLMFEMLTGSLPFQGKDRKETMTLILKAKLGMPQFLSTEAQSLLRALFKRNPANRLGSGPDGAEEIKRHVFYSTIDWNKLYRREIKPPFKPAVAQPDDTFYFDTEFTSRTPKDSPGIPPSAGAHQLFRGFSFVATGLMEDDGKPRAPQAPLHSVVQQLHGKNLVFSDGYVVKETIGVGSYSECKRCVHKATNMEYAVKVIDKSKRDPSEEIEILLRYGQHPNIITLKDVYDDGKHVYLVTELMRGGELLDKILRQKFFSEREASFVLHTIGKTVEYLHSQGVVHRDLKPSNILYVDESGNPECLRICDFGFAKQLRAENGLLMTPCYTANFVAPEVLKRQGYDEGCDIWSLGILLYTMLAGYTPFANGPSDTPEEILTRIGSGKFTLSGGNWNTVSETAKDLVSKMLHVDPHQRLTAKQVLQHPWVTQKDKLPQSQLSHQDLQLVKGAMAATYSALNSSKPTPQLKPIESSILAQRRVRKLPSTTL

[7] = target: T5, MYO3B (Homo sapiens, UniProt Q8WXR4)
T5 sequence (Q8WXR4 1-1341): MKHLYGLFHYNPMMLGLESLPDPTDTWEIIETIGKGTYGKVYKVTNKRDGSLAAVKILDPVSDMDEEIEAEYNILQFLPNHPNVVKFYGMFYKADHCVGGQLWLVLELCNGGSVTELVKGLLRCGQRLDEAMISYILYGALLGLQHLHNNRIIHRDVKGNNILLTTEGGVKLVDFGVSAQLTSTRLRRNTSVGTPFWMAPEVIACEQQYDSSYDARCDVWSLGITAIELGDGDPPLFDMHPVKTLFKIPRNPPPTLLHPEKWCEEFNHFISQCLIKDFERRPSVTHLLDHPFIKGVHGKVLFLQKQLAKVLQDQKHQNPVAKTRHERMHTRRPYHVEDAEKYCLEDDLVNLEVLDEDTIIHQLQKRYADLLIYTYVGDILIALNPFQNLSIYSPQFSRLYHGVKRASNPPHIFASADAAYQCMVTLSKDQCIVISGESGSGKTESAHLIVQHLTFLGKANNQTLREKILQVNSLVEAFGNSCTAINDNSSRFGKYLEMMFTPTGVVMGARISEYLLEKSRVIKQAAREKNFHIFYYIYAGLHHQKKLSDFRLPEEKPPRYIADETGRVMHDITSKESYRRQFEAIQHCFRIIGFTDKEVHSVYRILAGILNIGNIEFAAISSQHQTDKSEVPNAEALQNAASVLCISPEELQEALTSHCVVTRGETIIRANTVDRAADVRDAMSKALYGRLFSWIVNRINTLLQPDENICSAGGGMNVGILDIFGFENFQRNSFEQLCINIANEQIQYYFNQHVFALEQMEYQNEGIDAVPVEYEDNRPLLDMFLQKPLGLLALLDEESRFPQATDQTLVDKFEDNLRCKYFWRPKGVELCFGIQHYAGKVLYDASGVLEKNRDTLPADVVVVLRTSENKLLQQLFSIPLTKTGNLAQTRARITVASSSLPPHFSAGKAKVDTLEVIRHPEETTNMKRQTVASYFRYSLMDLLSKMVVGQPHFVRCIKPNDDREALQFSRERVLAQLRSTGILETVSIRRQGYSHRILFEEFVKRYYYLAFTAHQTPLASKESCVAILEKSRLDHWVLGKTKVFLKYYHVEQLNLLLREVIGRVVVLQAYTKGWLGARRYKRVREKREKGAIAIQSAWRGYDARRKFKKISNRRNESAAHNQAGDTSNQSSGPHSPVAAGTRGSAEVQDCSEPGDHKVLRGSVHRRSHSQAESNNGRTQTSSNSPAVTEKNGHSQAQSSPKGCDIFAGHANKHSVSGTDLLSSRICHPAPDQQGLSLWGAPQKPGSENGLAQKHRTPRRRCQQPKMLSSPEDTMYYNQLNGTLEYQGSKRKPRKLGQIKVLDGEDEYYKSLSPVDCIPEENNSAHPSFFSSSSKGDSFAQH

[8] = read-out: Talazoparib (BMN 673) / %Ctrl @ 10000nM
[9] = read-out: Olaparib / %Ctrl @ 10000nM
[10] = read-out: Niraparib (MK-4827) / %Ctrl @ 10000nM
[11] = read-out: Rucaparib / %Ctrl @ 10000nM, binding competition, % of control

SMILES: Cn1ncnc1[C@H]1c2n[nH]c(=O)c3cc(F)cc(c23)N[C@@H]1c1ccc(F)cc1 [Talazoparib]
- percent of control binding at 10 µM [1, 8]: 92%
- percent of control binding at 10 µM [2, 8]: 100%
- percent of control binding at 10 µM [3, 8]: 96%
- percent of control binding at 10 µM [4, 8]: 100%
- percent of control binding at 10 µM [5, 8]: 97%
- percent of control binding at 10 µM [6, 8]: 100%
- percent of control binding at 10 µM [7, 8]: 97%

SMILES: O=C(c1cc(Cc2n[nH]c(=O)c3ccccc23)ccc1F)N1CCN(C(=O)C2CC2)CC1 [Olaparib]
- percent of control binding at 10 µM [1, 9]: 83%
- percent of control binding at 10 µM [2, 9]: 100%
- percent of control binding at 10 µM [3, 9]: 98%
- percent of control binding at 10 µM [4, 9]: 92%
- percent of control binding at 10 µM [5, 9]: 99%
- percent of control binding at 10 µM [6, 9]: 94%
- percent of control binding at 10 µM [7, 9]: 75%

SMILES: NC(=O)c1cccc2cn(-c3ccc([C@@H]4CCCNC4)cc3)nc12 [Niraparib]
- percent of control binding at 10 µM [1, 10]: 58%
- percent of control binding at 10 µM [2, 10]: 67%
- percent of control binding at 10 µM [3, 10]: 80%
- percent of control binding at 10 µM [4, 10]: 52%
- percent of control binding at 10 µM [5, 10]: 81%
- percent of control binding at 10 µM [6, 10]: 98%
- percent of control binding at 10 µM [7, 10]: 56%

SMILES: CNCc1ccc(-c2[nH]c3cc(F)cc4c3c2CCNC4=O)cc1 [Rucaparib]
- percent of control binding at 10 µM [1, 11]: 80%
- percent of control binding at 10 µM [2, 11]: 29%
- percent of control binding at 10 µM [3, 11]: 100%
- percent of control binding at 10 µM [4, 11]: 40%
- percent of control binding at 10 µM [5, 11]: 70%
- percent of control binding at 10 µM [6, 11]: 91%
- percent of control binding at 10 µM [7, 11]: 62%
